ChEMBL document CHEMBL1129308, “Design and synthesis of 2-naphthoate esters as selective dopamine D4 antagonists” (J Med Chem, 1996)

Assays:
[1] = target: D(2) dopamine receptor (Homo sapiens, UniProt P14416); assay: Binding affinity against cloned human Dopamine receptor D2 (long) using [125I]iodosulpiride as radioligand
[2] = target: T1, D(4) dopamine receptor (Homo sapiens, UniProt P21917); assay: Binding affinity against cloned human Dopamine receptor D4 using [3H]nemonapride as radioligand
T1 sequence (P21917 whole entry): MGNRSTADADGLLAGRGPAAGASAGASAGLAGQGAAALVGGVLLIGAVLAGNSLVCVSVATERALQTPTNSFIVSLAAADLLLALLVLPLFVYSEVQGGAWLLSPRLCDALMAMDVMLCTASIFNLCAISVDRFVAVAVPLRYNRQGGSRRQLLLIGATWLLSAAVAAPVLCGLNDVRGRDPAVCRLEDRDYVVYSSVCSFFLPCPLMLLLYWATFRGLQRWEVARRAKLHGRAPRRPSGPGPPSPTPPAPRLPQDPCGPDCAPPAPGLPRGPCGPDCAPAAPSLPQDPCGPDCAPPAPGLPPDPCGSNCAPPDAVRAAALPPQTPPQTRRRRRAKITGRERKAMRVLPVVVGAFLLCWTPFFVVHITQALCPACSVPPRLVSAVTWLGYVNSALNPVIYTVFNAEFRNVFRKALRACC

[3] = target: Dopamine receptors; D2 & D4 (Homo sapiens) (UniProt P14416+P21917); assay: Selectivity ratio for binding affinity between D4 and D2 receptor; type: protein assay
Chain of Dopamine receptors; D2 & D4 (Homo sapiens) (P14416 whole entry, looked up, one chain of several): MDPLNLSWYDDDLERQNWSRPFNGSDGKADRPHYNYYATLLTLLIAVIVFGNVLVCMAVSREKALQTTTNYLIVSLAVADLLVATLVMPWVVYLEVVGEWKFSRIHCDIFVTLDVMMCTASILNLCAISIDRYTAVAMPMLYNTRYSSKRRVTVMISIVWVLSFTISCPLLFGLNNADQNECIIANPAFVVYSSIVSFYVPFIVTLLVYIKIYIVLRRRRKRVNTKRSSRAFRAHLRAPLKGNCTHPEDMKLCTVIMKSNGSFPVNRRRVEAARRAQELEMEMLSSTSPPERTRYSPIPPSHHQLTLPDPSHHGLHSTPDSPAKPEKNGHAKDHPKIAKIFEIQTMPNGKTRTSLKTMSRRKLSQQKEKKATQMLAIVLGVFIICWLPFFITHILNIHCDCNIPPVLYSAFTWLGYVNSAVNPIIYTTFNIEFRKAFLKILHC

Chain of D(2) dopamine receptor (P14416 whole entry): as the sequence (P14416 whole entry, looked up, one chain of several) above

Row | Compound | Ki [1] | Ki [2] | Selectivity [3]
1 | COc1cc2ccccc2cc1C(=O)NC1CCN(Cc2ccccc2)C1 (stereo not given) | 39.8 nM | 3.98 nM | 10
2 | COc1cc2ccccc2cc1CC(=O)CC1CCN(Cc2ccccc2)CC1 | 1260 nM | 200 nM | 6
3 | COc1cc2ccccc2cc1C(=O)CCC1CCN(Cc2ccccc2)CC1 | 398 nM | 31.6 nM | 12
4 | COc1cc2ccccc2cc1C(=O)OCC1CCN(Cc2ccccc2)C1 (stereo not given) | 10000 nM | 20 nM | 500
5 | O=C(OCC1CCN(Cc2ccccc2)CC1)c1ccc(Cl)cc1 | 2000 nM | 25.1 nM | 80
6 | COc1cc2ccccc2cc1COCC1CCN(Cc2ccccc2)CC1 | 1000 nM | 31.6 nM | 30
7 | COc1cc2ccccc2cc1C(=O)NCC1CCN(Cc2ccccc2)CC1 | 126 nM | 20 nM | 6
8 | COc1cc2ccccc2cc1OCCC1CCN(Cc2ccccc2)CC1 | 1580 nM | 25.1 nM | 60
9 | COc1cc2ccccc2cc1C(=O)OCC1CCN(Cc2ccccc2)CC1 | 3160 nM | 5.01 nM | 630
10 | COc1cc2ccccc2cc1OC(=O)CC1CCN(Cc2ccccc2)CC1 | 7940 nM | 6.31 nM | 1260
